“Also recorded” adds a separate entry of the source.
Experiments:
[1] = test system: stimulated human monocytic THP-1 cells; test: Viability of LPS plus IFN-γ stimulated THP-1 cells (MTT assay); format: cell-based; conditions: 1–100 μM, added 15 min before LPS plus IFN-γ, 24 h
Protocol: (§1) The MTT assay was performed as described by Mosmann and by Hansen et al.. Cell viability was determined by adding MTT to the cell cultures to reach a final concentration of 500 μg mL^−1. Following one h incubation at 37 °C, the dark purple crystals formed by viable cells were dissolved by adding to the wells an equal volume of the extraction buffer containing 20% sodium dodecyl sulfate and 50% N,N-dimethylformamide, pH 4.7. After overnight incubation at 37 °C, 100 μL aliquots of MTT solutions were transferred to a 96-well plate, and a FLUOstar Omega platereader (BMG Labtech, Offenburg, Germany) was used to measure the optical densities at 570 nm. Cell viability in various samples was calculated as percent of the optical density value obtained with cells incubated in fresh cell culture medium only.
(§2) The anti-neurotoxic activity of the compounds was evaluated using a method described previously. Human monocytic THP-1 cells were transferred to 24-well plates in 800 µL aliquots of 5 × 10^5 cells mL^−1 per well. The cells were pre-incubated with varying concentrations of pyrazole derivatives or their DMSO vehicle solution for 15 min before stimulation with a combination of lipopolysaccharide (LPS, 0.5 µg mL^−1) and human interferon-γ (IFN-γ, 150 U mL^−1). […] After 24 h incubation, 400 µL of supernatants from THP-1 cells was transferred to SH-SY5Y cells (seeded 24 h earlier in 24-well plates; 400 µL of 2 × 10^5 cells mL^−1). The viability of THP-1 cells was measured by the MTT assay immediately after the transfer of the supernatants. The effects of THP-1 cell supernatants on SH-SY5Y neuronal cell viability were measured by the MTT assay after 72 h incubation. […] The concentrations of stimuli and incubation times of THP-1 cells with the stimuli were selected in preliminary experiments so that significant partial killing of SH-SY5Y cells was achieved (20–30% viable cells left), which could be a result of the combined action of cytotoxins secreted by THP-1 cells and depletion of nutrients from the cell culture medium by the stimulated THP-1 cells.

[2] = test system: immune-stimulated human THP-1 monocytic cells (toxicity toward SH-SY5Y neuronal cells); test: Anti-neurotoxic activity: supernatants of compound-treated stimulated THP-1 cells transferred to SH-SY5Y cells (MTT assay); format: cell-based; conditions: for IC50: Homo sapiens, estimated from Figure 4, read-out: IC50 for reducing toxic effect of stimulated THP-1 supernatants on SH-SY5Y cells
Protocol: as §1, §2

[3] = test system: human PC-3 prostate cancer cells; test: Cytotoxicity of pyrazole derivatives to PC-3 cells (MTT assay); format: cell-based; conditions: 100 μM (highest concentration tested), 48 h
Protocol: as §1
PC-3 prostate cancer cells were transferred to 24-well plates in 500 µL aliquots of 1.5 × 10^5 cells mL^−1 per well. Varying concentrations of the pyrazole derivatives or the 0.5% DMSO vehicle were added to the cells. After 48 h incubation, cell viability was measured by using the MTT assay.

SH-SY5Y cells [4] = test: Neuroprotective activity: compounds added directly to SH-SY5Y cells with stimulated THP-1 supernatants (MTT assay); format: cell-based, human
Protocol: as §1
SH-SY5Y cells were seeded into 24-well plates (400 µL at 2 × 10^5 cells mL^−1). After 24 h incubation, the cell culture medium was replaced with 400 µL of supernatants from THP-1 cells that had been stimulated for 24 h with LPS plus IFN-γ, as described in 2.6. Varying concentrations of the compounds or the DMSO vehicle solution were added directly to SH-SY5Y cells at the time of the supernatant transfer. The viability of SH-SY5Y cells was measured by the MTT assay 72 h later.

SH-SY5Y cells [5] = test system: SH-SY5Y cells; design: method as in PMID 20609589; conditions: earlier report; cited from earlier work

melting point | SMILES | toxicity to stimulated THP-1 cells (cell viability, MTT) [1] | IC50 [2] | other results
108 to 110 °C | N#Cc1cnn(-c2ccccc2)c1NC(=O)C(=O)NCCCCCCCCCN [2a] | None of these six derivatives were toxic | 50 to 100 µM | concentrations at which the protective effect was statistically significant ([2]; tested 1–100 μM, Dunnett's post-hoc test): 100 µM
188 to 190 °C | N#Cc1cnn(-c2ccccc2)c1NC(=O)C(=O)N(C1CCCCC1)C1CCCCC1 [2b] | None of these six derivatives were toxic | 10 to 50 µM | –
250 to 253 °C | CN(C)C(=O)C(=O)Nc1c(C#N)cnn1-c1ccccc1 [2c] | None of these six derivatives were toxic | 10 to 50 µM | –
108 to 110 °C | C=CCNC(=O)C(=O)Nc1c(C#N)cnn1-c1ccccc1 [2d] | None of these six derivatives were toxic | – | change in PC-3 cell viability [3]: small yet significant increase in cell viability; change in SH-SY5Y cell viability ([2]; 100 μM, supernatant transfer from treated THP-1 cells, 72 h): small but significant decrease in SH-SY5Y cell viability; also recorded: small yet significant reduction of SH-SY5Y cell viability; protective (anti-neurotoxic) effect ([2]; 1–100 μM): no protective effect; change in SH-SY5Y cell viability, compound added directly (SH-SY5Y cells [4]; 100 μM, 72 h): small but significant decrease in SH-SY5Y cell viability
258 to 261 °C | N#Cc1cnn(-c2ccccc2)c1NC(=O)C(=O)Nc1ccc(N)cc1 [2e] | None of these six derivatives were toxic | 10 to 50 µM | –
237 to 239 °C | N#Cc1cnn(-c2ccccc2)c1NC(=O)C(=O)Nc1ccc(O)cc1 [2f] | – | – | –
– | N#Cc1cnn(-c2ccccc2)c1NC(=O)C(=O)Nc1c(C#N)cnn1-c1ccccc1 [compound 1] | – | – | direct neuroprotective activity (SH-SY5Y cells [5]): showed this effect
139 to 141 °C | CN(C)CCOC(=O)C(=O)Nc1c(C#N)cnn1-c1ccccc1 [compound 3] | None of these six derivatives were toxic | 10 to 50 µM | direct neuroprotective effect on SH-SY5Y cells (SH-SY5Y cells [4]; 1–100 μM, added at the time of supernatant transfer): neuroprotective effect; viability at 100 µM (SH-SY5Y cells [4]; Homo sapiens, SH-SY5Y, 100 μM, 72 h, without compound 20–30%): > 40%

Source: PMC6679371, “Synthesis and Evaluation of Novel Pyrazole Ethandiamide Compounds as Inhibitors of Human THP-1 Monocytic Cell Neurotoxicity” (Cells, 2019)
